What was measured:
[1] = Ionisation: release of available F; format: physicochemical
Excerpt: The corresponding values for Na2SnF6 are 73% and 38%, respectively. Thus Na2SnF6 is less ionised than Sn(NH4)2F6.

[2] = applied topically to the teeth; Caries Res. 3, 315-325, 1969; cited from earlier work
[3] = tested on: Streptococcus sanguis 10557; experiment: Inhibition of bacterial growth (optical density after 24 hours); format: cell-based; conditions: S.sanguis 10557; for IC50: 24 hours at 37°C, means of triplicate experiments, read-out: ID/50 (the source's name); for ID/50: recalculated as ppm F, 1440 min
Excerpt: (§1) Cariogenic Bacteria used for testing the effect of Sn(^NH4)2F6 were Streptococcus mutans (strains coded 6715 and OMZ-176), Streptococcus sanguis (strains coded 10556 and 10557), Streptococcus salivarius (strains coded SS4 and H257), and Lactobacillus casei. All of the above organisms were maintained as lyophilised cultures until the time for use.
(§2) It is generally agreed that oral bacteria are responsible for tooth decay. Therefore, a reduction of the cariogenic flora usually results in a decrease in caries formation. The inhibitory action of the test compounds was. determined by adding each salt, at known concentrations, to a culture of cariogenic bacteria. After 24 hours at 37°C bacterial growth was monitored as a change in optical density. A dose response curve (concentration of salt vs. growth) for each compound against each bacterial isolate was plotted in order to obtain the concentration of test agent which would cause a 50% inhibition in growth (ID/50). This is a useful ranking index since it is not always possible to obtain complete inhibition with weak germicidal agents. Only those compounds which were able to elicit an ID/50 response were considered as inhibitory agents.
(§3) The medium used for bacterial growth experiments was Trypticase Soy Broth (B.B.L.: Baltimore Biological Labs., Baltimore, MD) supplemented with 0.1% Tween 80 (the word Tween is a trade mark) and 0.05% sodium thioglycollate. The test organisms, as lyophilised cells, were grown overnight in 50 mls of growth medium in a vacuum desiccator with an atmosphere of 97% CO /3% H2 at 35°C. These cultures were then used at a 0.2% inoculum to prepare second stage seed flasks. The test media (10ml) consisting of growth medium plus the potential inhibitors, contained in 16 x 120 mm screw top test tubes, were inoculated with the second stage seed cultures to given an absorbancy reading of 0.05. Immediately after inoculation the cultures were incubated for 24 hours under anaerobic conditions.
(§4) The growth medium was sterilised by autoclaving, whereas the potential inhibitors (as aqueous solutions) were sterilised by filtering each solution separately through a Millipore membrane (0.22 /u).
(§5) Absorbance at 600 nm versus a medium control was used as a measure of growth on a Beckman Model B spectrophotometer. All absorbancy readings were determined in 16 mm x 120 mm Kimax test tubes. This instrument was linear to 0.60 OD units; thus, all cultures displaying values above this range were diluted with the control, accordingly.

[4] = tested on: Streptococcus sanguis 10556; experiment: as above; format: cell-based; conditions: S.sanguis 10556; for IC50: 24 hours at 37°C, means of triplicate experiments, read-out: ID/50 (the source's name); for ID/50: recalculated as ppm F, 1440 min
Excerpt: as §1, §2, §3, §4, §5

Lactobacillus casei = experiment: as above; format: cell-based; conditions: L.casei; for IC50: 24 hours at 37°C, means of triplicate experiments, read-out: ID/50 (the source's name); for ID/50: recalculated as ppm F, 1440 min
Excerpt: as §1, §2, §3, §4, §5

[5] = tested on: Streptococcus salivarius SS4; experiment: as above; format: cell-based; conditions: S.salivarius SS4; for IC50: 24 hours at 37°C, means of triplicate experiments, read-out: ID/50 (the source's name); for ID/50: recalculated as ppm F, 1440 min
Excerpt: as §1, §2, §3, §4, §5

[6] = tested on: Streptococcus salivarius H257; experiment: as above; format: cell-based; conditions: S.salivarius H-257; for IC50: 24 hours at 37°C, means of triplicate experiments, read-out: ID/50 (the source's name); for ID/50: recalculated as ppm F, 1440 min
Excerpt: as §1, §2, §3, §4, §5

[7] = tested on: Streptococcus mutans OMZ-176; experiment: as above; format: cell-based; conditions: S.mutans OMZ-176; for IC50: 24 hours at 37°C, means of triplicate experiments, read-out: ID/50 (the source's name); for ID/50: recalculated as ppm F, 1440 min
Excerpt: as §1, §2, §3, §4, §5

[8] = tested on: Streptococcus mutans 6715; experiment: as above; format: cell-based; conditions: S.mutans 6715; recalculated as ppm F; 1440 min
Excerpt: as §1, §2, §3, §4, §5

pH of aqueous solution = format: physicochemical
Excerpt: An aqueous solution of Sn(NH4)2F6 has a ^pH of about 3.8 as compared to a pH of 3.0 for SnF2. This higher pH characteristic eliminates some of the formulation problems encountered with the strong acid effect of SnF2. The preferred pH of oral compositions containing ^Sn(NH4)2F6 is from 3.5 to 8.0. A 1000 ppm F^- solution of Sn(NH4)2F6 was stable.

[9] = Stability of aqueous solution on standing (haze / turbidity); format: physicochemical; conditions: 1000 ppm F- solution of Sn(NH4)2F6 on standing several weeks; SnF2 solution after 24 hours at room temperature
[10] = concentration equivalent to 1000 ppm
[11] = concentration equivalent to 2500 ppm

| SMILES | released available F [1, 10] | released available F [1, 11] | caries inhibiting effect [2] | IC50 [3] [µM] | ID/50 [3] [ppm F] | IC50 [4] [µM] | ID/50 [4] [ppm F] | IC50 (Lactobacillus casei) [mM] | ID/50 (Lactobacillus casei) [ppm F] | IC50 [5] [mM] | ID/50 [5] [ppm F] | IC50 [6] [µM] | ID/50 [6] [ppm F] | IC50 [7] [mM] | ID/50 [7] [ppm F] | ID/50 [8] [ppm F] | pH (pH of aqueous solution) | stability of solution [9] |
| --- | --- | --- | --- | --- | --- | --- | --- | --- | --- | --- | --- | --- | --- | --- | --- | --- | --- | --- |
| [F-].[F-].[F-].[F-].[F-].[F-].[Na+].[Na+].[Sn+4] [Na2SnF6, sodium hexafluorostannate] | 73% | 38% | has a caries inhibiting effect | – | – | – | – | – | – | – | – | – | – | – | – | – | – | – |
| [F-].[Na+] [NaF] | – | – | – | 1820 | 35 | 1180 | 22 | > 12 | 352 | 13.4 | 255 | 3770 | 72 | 16.3 | 309 | 138 | – | – |
| N.N.[F-].[F-].[F-].[F-].[F-].[F-].[Sn] [Sn(NH4)2F6, stannic ammonium fluoride] | the same ionisation values as SnF2 | the same ionisation values as SnF2 | – | 390 | 45 | 220 | 25 | 2.53 | 288 | 1.65 | 188 | 400 | 46 | 1.43 | 163 | 137 | about 3.8 | stable |
| [Cl][Sn][Cl] [SnCl2] | – | – | – | – | – | – | – | 3 to 6 | – | – | – | – | – | – | – | – | – | – |
| [F][Sn][F] [SnF2] | 80% | 45% | – | 840 | 32 | 440 | 17 | 2.97 | 113 | 2.45 | 93 | 740 | 29 | 2.28 | 87 | 56 | 3.0 | developed turbidity |
